Data from PubChem BioAssay (NCI).
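Method: 48-hour compound exposure of cells in 96-well plates, five concentrations, linear interpolation of endpoints. GI50: concentration for 50% inhibition of growth. The concentration for full growth arrest is given as TGI.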

Columns and labels:
Experiment in all cases: inhibition of tumour cell growth, NCI panel, 48 h
OVCAR-3 ovarian = test system: OVCAR-3 ovarian
SK-MEL-2 melanoma = test system: SK-MEL-2 melanoma
M14 melanoma = test system: M14 melanoma
U251 CNS = test system: U251 CNS
BT-549 breast = test system: BT-549 breast
SNB-19 CNS = test system: SNB-19 CNS
SN12C renal = test system: SN12C renal
K-562 leukemia = test system: K-562 leukemia
RPMI-8226 leukemia = test system: RPMI-8226 leukemia
UACC-257 melanoma = test system: UACC-257 melanoma
MALME-3M melanoma = test system: MALME-3M melanoma
OVCAR-5 ovarian = test system: OVCAR-5 ovarian
SF-268 CNS = test system: SF-268 CNS
SF-539 CNS = test system: SF-539 CNS
MOLT-4 leukemia = test system: MOLT-4 leukemia
RXF 393 renal = test system: RXF 393 renal
A549 NSCLC = test system: A549 NSCLC
LOX IMVI melanoma = test system: LOX IMVI melanoma
NCI-H23 lung = test system: NCI-H23 lung
MCF7 breast = test system: MCF7 breast
UACC-62 melanoma = test system: UACC-62 melanoma
HCT-116 colon = test system: HCT-116 colon
HS 578T breast = test system: HS 578T breast
HL-60(TB) leukemia = test system: HL-60(TB) leukemia
IGROV1 ovarian = test system: IGROV1 ovarian
SK-MEL-5 melanoma = test system: SK-MEL-5 melanoma
A498 renal = test system: A498 renal
HCT-15 colon = test system: HCT-15 colon
SW-620 colon = test system: SW-620 colon
HT29 colon = test system: HT29 colon
KM12 colon = test system: KM12 colon
786-0 renal = test system: 786-0 renal
PC-3 prostate = test system: PC-3 prostate
CCRF-CEM leukemia = test system: CCRF-CEM leukemia
DU-145 prostate = test system: DU-145 prostate
SK-OV-3 ovarian = test system: SK-OV-3 ovarian
ACHN renal = test system: ACHN renal
HCC-2998 colon = test system: HCC-2998 colon
HOP-62 NSCLC = test system: HOP-62 NSCLC
SK-MEL-28 melanoma = test system: SK-MEL-28 melanoma
UO-31 renal = test system: UO-31 renal
NCI-H522 lung = test system: NCI-H522 lung
SNB-75 CNS = test system: SNB-75 CNS
NCI/ADR-RES ovarian = test system: NCI/ADR-RES ovarian
T-47D breast = test system: T-47D breast
CAKI-1 renal = test system: CAKI-1 renal
OVCAR-8 ovarian = test system: OVCAR-8 ovarian
NCI-H226 lung = test system: NCI-H226 lung
HOP-92 NSCLC = test system: HOP-92 NSCLC
COLO 205 colon = test system: COLO 205 colon
SF-295 CNS = test system: SF-295 CNS
MDA-MB-435 = test system: MDA-MB-435
OVCAR-4 ovarian = test system: OVCAR-4 ovarian
NCI-H460 lung = test system: NCI-H460 lung
MDA-MB-231 breast = test system: MDA-MB-231 breast

Question: For COc1ccc(-n2c(SCc3cc(OC)c(OC)c(OC)c3)nc3ccc(C)cc3c2=O)cc1, which GI50 (OVCAR-3 ovarian) is on record?
Answer: 4.87 µM

Question: What about the TGI (OVCAR-3 ovarian) of the same compound?
Answer: > 100 µM

Question: And the GI50 (SK-MEL-2 melanoma)?
Answer: 8.73 µM

Question: And the TGI (SK-MEL-2 melanoma)?
Answer: > 100 µM

Question: And the GI50 (M14 melanoma)?
Answer: 4.26 µM

Question: What about the TGI (M14 melanoma) of the same compound?
Answer: > 100 µM

Question: What about the GI50 (U251 CNS) of the same compound?
Answer: 7.87 µM

Question: And the TGI (U251 CNS)?
Answer: > 100 µM

Question: And the GI50 (BT-549 breast)?
Answer: 7.37 µM

Question: And the TGI (BT-549 breast)?
Answer: > 100 µM

Question: And the GI50 (SNB-19 CNS)?
Answer: > 100 µM

Question: And the TGI (SNB-19 CNS)?
Answer: > 100 µM

Question: And the GI50 (SN12C renal)?
Answer: 52.7 µM

Question: What about the TGI (SN12C renal) of the same compound?
Answer: > 100 µM

Question: And the GI50 (K-562 leukemia)?
Answer: 3.89 µM

Question: What about the TGI (K-562 leukemia) of the same compound?
Answer: > 100 µM

Question: What about the GI50 (RPMI-8226 leukemia) of the same compound?
Answer: 2550 nM

Question: What about the TGI (RPMI-8226 leukemia) of the same compound?
Answer: 50.9 µM

Question: And the GI50 (UACC-257 melanoma)?
Answer: 64.4 µM

Question: And the TGI (UACC-257 melanoma)?
Answer: > 100 µM

Question: And the GI50 (MALME-3M melanoma)?
Answer: 59.8 µM

Question: What about the TGI (MALME-3M melanoma) of the same compound?
Answer: > 100 µM

Question: And the GI50 (OVCAR-5 ovarian)?
Answer: > 100 µM

Question: What about the TGI (OVCAR-5 ovarian) of the same compound?
Answer: > 100 µM

Question: And the GI50 (SF-268 CNS)?
Answer: 55.2 µM

Question: And the TGI (SF-268 CNS)?
Answer: > 100 µM

Question: And the GI50 (SF-539 CNS)?
Answer: 14.8 µM

Question: And the TGI (SF-539 CNS)?
Answer: > 100 µM

Question: And the GI50 (MOLT-4 leukemia)?
Answer: 5.19 µM

Question: And the TGI (MOLT-4 leukemia)?
Answer: > 100 µM

Question: What about the GI50 (RXF 393 renal) of the same compound?
Answer: 70.4 µM

Question: What about the TGI (RXF 393 renal) of the same compound?
Answer: > 100 µM

Question: And the GI50 (A549 NSCLC)?
Answer: 4.75 µM

Question: What about the TGI (A549 NSCLC) of the same compound?
Answer: > 100 µM

Question: What about the GI50 (LOX IMVI melanoma) of the same compound?
Answer: 17.2 µM

Question: What about the TGI (LOX IMVI melanoma) of the same compound?
Answer: > 100 µM

Question: What about the GI50 (NCI-H23 lung) of the same compound?
Answer: 32.7 µM

Question: And the TGI (NCI-H23 lung)?
Answer: > 100 µM

Question: What about the GI50 (MCF7 breast) of the same compound?
Answer: 3.71 µM

Question: What about the TGI (MCF7 breast) of the same compound?
Answer: > 100 µM

Question: And the GI50 (UACC-62 melanoma)?
Answer: 6.82 µM

Question: What about the TGI (UACC-62 melanoma) of the same compound?
Answer: > 100 µM

Question: And the GI50 (HCT-116 colon)?
Answer: 3.38 µM

Question: What about the TGI (HCT-116 colon) of the same compound?
Answer: > 100 µM

Question: What about the GI50 (HS 578T breast) of the same compound?
Answer: 6.06 µM

Question: And the TGI (HS 578T breast)?
Answer: > 100 µM

Question: And the GI50 (HL-60(TB) leukemia)?
Answer: 3.74 µM

Question: And the TGI (HL-60(TB) leukemia)?
Answer: > 100 µM

Question: And the GI50 (IGROV1 ovarian)?
Answer: > 100 µM

Question: And the TGI (IGROV1 ovarian)?
Answer: > 100 µM

Question: What about the GI50 (SK-MEL-5 melanoma) of the same compound?
Answer: 3.58 µM

Question: And the TGI (SK-MEL-5 melanoma)?
Answer: > 100 µM

Question: What about the GI50 (A498 renal) of the same compound?
Answer: 1950 nM

Question: And the TGI (A498 renal)?
Answer: 16.9 µM

Question: And the GI50 (HCT-15 colon)?
Answer: 5.24 µM

Question: And the TGI (HCT-15 colon)?
Answer: > 100 µM

Question: And the GI50 (SW-620 colon)?
Answer: 4.35 µM

Question: And the TGI (SW-620 colon)?
Answer: > 100 µM

Question: And the GI50 (HT29 colon)?
Answer: 4.3 µM

Question: And the TGI (HT29 colon)?
Answer: > 100 µM

Question: And the GI50 (KM12 colon)?
Answer: 4.57 µM

Question: What about the TGI (KM12 colon) of the same compound?
Answer: > 100 µM

Question: What about the GI50 (786-0 renal) of the same compound?
Answer: > 100 µM

Question: What about the TGI (786-0 renal) of the same compound?
Answer: > 100 µM

Question: What about the GI50 (PC-3 prostate) of the same compound?
Answer: 2830 nM

Question: What about the TGI (PC-3 prostate) of the same compound?
Answer: > 100 µM

Question: And the GI50 (CCRF-CEM leukemia)?
Answer: 1580 nM

Question: What about the TGI (CCRF-CEM leukemia) of the same compound?
Answer: > 100 µM

Question: What about the GI50 (DU-145 prostate) of the same compound?
Answer: > 100 µM

Question: What about the TGI (DU-145 prostate) of the same compound?
Answer: > 100 µM

Question: And the GI50 (SK-OV-3 ovarian)?
Answer: 9.74 µM

Question: And the TGI (SK-OV-3 ovarian)?
Answer: > 100 µM

Question: What about the GI50 (ACHN renal) of the same compound?
Answer: 42.9 µM

Question: And the TGI (ACHN renal)?
Answer: > 100 µM

Question: And the GI50 (HCC-2998 colon)?
Answer: > 100 µM

Question: What about the TGI (HCC-2998 colon) of the same compound?
Answer: > 100 µM

Question: What about the GI50 (HOP-62 NSCLC) of the same compound?
Answer: 29.1 µM

Question: What about the TGI (HOP-62 NSCLC) of the same compound?
Answer: > 100 µM

Question: And the GI50 (SK-MEL-28 melanoma)?
Answer: 25.9 µM

Question: What about the TGI (SK-MEL-28 melanoma) of the same compound?
Answer: > 100 µM

Question: What about the GI50 (UO-31 renal) of the same compound?
Answer: 5.56 µM

Question: And the TGI (UO-31 renal)?
Answer: > 100 µM

Question: And the GI50 (NCI-H522 lung)?
Answer: 4.41 µM

Question: And the TGI (NCI-H522 lung)?
Answer: > 100 µM

Question: And the GI50 (SNB-75 CNS)?
Answer: 2760 nM

Question: What about the TGI (SNB-75 CNS) of the same compound?
Answer: > 100 µM

Question: And the GI50 (NCI/ADR-RES ovarian)?
Answer: 3.71 µM

Question: And the TGI (NCI/ADR-RES ovarian)?
Answer: > 100 µM

Question: And the GI50 (T-47D breast)?
Answer: 5.46 µM

Question: What about the TGI (T-47D breast) of the same compound?
Answer: > 100 µM

Question: What about the GI50 (CAKI-1 renal) of the same compound?
Answer: 4.53 µM

Question: What about the TGI (CAKI-1 renal) of the same compound?
Answer: > 100 µM

Question: And the GI50 (OVCAR-8 ovarian)?
Answer: > 100 µM

Question: What about the TGI (OVCAR-8 ovarian) of the same compound?
Answer: > 100 µM

Question: And the GI50 (NCI-H226 lung)?
Answer: > 100 µM

Question: And the TGI (NCI-H226 lung)?
Answer: > 100 µM

Question: And the GI50 (HOP-92 NSCLC)?
Answer: 1750 nM

Question: What about the TGI (HOP-92 NSCLC) of the same compound?
Answer: > 100 µM

Question: What about the GI50 (COLO 205 colon) of the same compound?
Answer: 5.24 µM

Question: What about the TGI (COLO 205 colon) of the same compound?
Answer: > 100 µM

Question: And the GI50 (SF-295 CNS)?
Answer: 4.36 µM

Question: What about the TGI (SF-295 CNS) of the same compound?
Answer: > 100 µM

Question: What about the GI50 (MDA-MB-435) of the same compound?
Answer: 1880 nM

Question: And the TGI (MDA-MB-435)?
Answer: 4.72 µM

Question: And the GI50 (OVCAR-4 ovarian)?
Answer: 9.9 µM

Question: And the TGI (OVCAR-4 ovarian)?
Answer: > 100 µM

Question: And the GI50 (NCI-H460 lung)?
Answer: 3.83 µM

Question: What about the TGI (NCI-H460 lung) of the same compound?
Answer: > 100 µM

Question: What about the GI50 (MDA-MB-231 breast) of the same compound?
Answer: 5.73 µM

Question: And the TGI (MDA-MB-231 breast)?
Answer: > 100 µM
